Results: ChEMBL document CHEMBL1154960, “Development of improved inhibitors of wall teichoic acid biosynthesis with potent activity against Staphylococcus aureus” (Bioorg Med Chem Lett, 2010)
≈ marks a conversion by molar mass, not a printed value. Calls of active or inactive are those of the source. The calls are words filed in the database; no cut-off is given here.

How the values were obtained:
[1] = test system: Staphylococcus aureus; experiment: Antibacterial activity against Staphylococcus aureus RN4220 assessed as cell survival at 100 uM after 12 hrs by optical density plate reader method; assay type: functional; settings: RN4220, 12 h
[2] = test system: Staphylococcus aureus; experiment: Antibacterial activity against tarO deficient Staphylococcus aureus RN4220 assessed as cell survival at 100 uM after 12 hrs by optical density plate reader method; assay type: functional; settings: RN4220, 12 h
[3] = test system: Staphylococcus aureus; experiment: Antibacterial activity against Staphylococcus aureus RN4220 assessed as growth inhibition at 100 uM after 12 hrs by optical density plate reader method; assay type: functional
[4] = test system: Staphylococcus aureus; experiment: Antibacterial activity against Staphylococcus aureus RN4220 after 12 hrs by optical density plate reader method; assay type: functional
[5] = test system: Staphylococcus aureus; experiment: Antibacterial activity against tarO deficient Staphylococcus aureus RN4220 after 12 hrs by optical density plate reader method; assay type: functional; settings: RN4220, 12 h
[6] = test system: Staphylococcus aureus; experiment: Antibacterial activity against tarO deficient Staphylococcus aureus RN4220 assessed as growth inhibition at 100 uM after 12 hrs by optical density plate reader method; assay type: functional; settings: RN4220, 12 h, read-out: GI
[7] = test system: Staphylococcus aureus; experiment: Antibacterial activity against methicillin-sensitive Staphylococcus aureus RN6390 after 12 hrs by optical density plate reader method; assay type: functional; settings: RN6390, 12 h
[8] = test system: Staphylococcus aureus; experiment: Antibacterial activity against methicillin-resistant Staphylococcus aureus COL after 12 hrs by optical density plate reader method; assay type: functional
[9] = test system: Staphylococcus aureus; experiment: Antibacterial activity against methicillin-sensitive Staphylococcus aureus Newman after 12 hrs by optical density plate reader method; assay type: functional
[10] = test system: Staphylococcus aureus; experiment: Antibacterial activity against methicillin-resistant Staphylococcus aureus MW2 after 12 hrs by optical density plate reader method; assay type: functional; settings: MW2, 12 h
[11] = test system: Staphylococcus aureus; experiment: Bacteriostatic activity against Staphylococcus aureus RN4220 assessed as reduction in CFU at 8 times MIC up to 8 hrs by kill curve analysis; assay type: functional, organism-based
[12] = test system: Staphylococcus aureus; experiment: Antibacterial activity against Staphylococcus aureus RN4220 after 12 hrs by optical density plate reader method in presence of 50% fetal bovine serum; assay type: functional
[13] = test system: Mus musculus; experiment: Toxicity in CD1 mouse at 75 mg/kg, iv after 24 hrs; assay type: organism-based; design: dose 75 mg/kg, route intravenous; settings: in vivo
[14] = test system: Mus musculus; experiment: Toxicity in CD1 mouse at 100 mg/kg, iv; assay type: organism-based; design: dose 100 mg/kg, route intravenous; settings: in vivo
[15] = Staphylococcus aureus, RN4220, 12 h, read-out: GI
[16] = Staphylococcus aureus, RN4220, 12 h, read-out: MIC

Row | SMILES | survival at 100 µM [1] | survival at 100 µM [2] | inhibition of growth at 100 µM [6] | other results
1 | COc1ccccc1C1Nc2ccccc2-n2c(-c3ccccc3)c3c(=O)n(C)c(=O)n(C)c3c21 (centres undefined) | 85% | 123% | – | –
2 | CCOCCN(CCOCC)c1nc2c(S(=O)(=O)c3ccc(C)cc3)nnn2c2cc(OC)c(OC)cc12 | – | – | – | inhibition of growth at 100 µM [3, 15]: 31%
3 | Cn1c(=O)c2c(-c3ccc(Cl)cc3)n3c(c2n(C)c1=O)C(c1ccccc1)Nc1ccccc1-3 (centres undefined) | 65% | 74% | – | –
4 | COc1ccc(C2Nc3ccccc3-n3c(-c4ccccc4)c4c(=O)n(C)c(=O)n(C)c4c32)cc1 (centres undefined) | 37% | 81% | – | –
5 | COc1ccc(-c2c3c(=O)n(C)c(=O)n(C)c3c3n2-c2ccccc2NC3c2ccc(OC)cc2)cc1 (centres undefined) | 93% | 88% | – | –
6 | Cc1ccc(-c2c3c(=O)n(C)c(=O)n(C)c3c3n2-c2ccccc2NC3c2ccc(C)cc2O)cc1 (centres undefined) | 34% | 64% | – | –
7 | CCN(CC)c1nc2c(S(=O)(=O)c3ccccc3)nnn2c2cc([N+](=O)[O-])ccc12 | – | – | – | MIC [4, 16]: 100 µM (≈ 42.6 µg/mL); MIC [5]: 50 µM (≈ 21.3 µg/mL)
8 | CCN(CC)c1nc2c(S(=O)(=O)c3ccccc3)nnn2c2cc(OC)ccc12 | – | – | > 31% | inhibition of growth at 100 µM [3, 15]: > 31%
9 | CCN(CC)c1nc2c(S(=O)(=O)c3ccccc3)nnn2c2cc(Br)ccc12 | – | – | – | inhibition of growth at 100 µM [3, 15]: > 31%; MIC [5]: 100 µM (≈ 46 µg/mL)
10 | COc1ccc(-c2c3c(=O)n(C)c(=O)n(C)c3c3n2-c2ccccc2NC3c2ccco2)cc1 (centres undefined) | 57% | 69% | – | –
11 | CCN(CC)c1nc2c(S(=O)(=O)c3ccccc3)nnn2c2cc(OC)c(OC)cc12 | – | – | < 30% | MIC [7]: 3.1 µM (≈ 1.37 µg/mL); MIC [8]: 3.1 µM (≈ 1.37 µg/mL); MIC [4, 16]: 1.8 µM (≈ 0.795 µg/mL); MIC [9]: 3.1 µM (≈ 1.37 µg/mL); MIC [10]: 3.1 µM (≈ 1.37 µg/mL)
12 | Cc1ccc(C2Nc3cc(C)c(C)cc3-n3c(-c4ccccc4)c4c(=O)n(C)c(=O)n(C)c4c32)o1 (centres undefined) | 95% | 92% | – | –
13 | CCN(c1nc2c(S(=O)(=O)c3ccc(Cl)cc3)nnn2c2cc(OC)c(OC)cc12)C(C)C | – | – | < 30% | MIC [4, 16]: 2.5 µM (≈ 1.22 µg/mL)
14 | CCN(CC)c1nc2c(S(=O)(=O)c3ccccc3)nnn2c2ccc(F)cc12 | – | – | < 30% | inhibition of growth at 100 µM [3, 15]: > 31%
15 | Cc1ccc(-c2c3c(=O)n(C)c(=O)n(C)c3c3n2-c2ccccc2NC3c2ccc(C#N)cc2)cc1 (centres undefined) | 95% | 81% | – | –
16 | CCN(CC)c1nc2c(S(=O)(=O)c3ccccc3)nnn2c2cc(Cl)ccc12 | – | – | < 30% | inhibition of growth at 100 µM [3, 15]: < 30%
17 | COc1cc2c(N3CCN(c4ccccc4)CC3)nc3c(S(=O)(=O)c4ccc(C)cc4)nnn3c2cc1OC | – | – | > 70% | inhibition of growth at 100 µM [3, 15]: > 31%
18 | CCN(CC)c1nc2c(S(=O)(=O)c3ccccc3)nnn2c2cc3c(cc12)OCCO3 | – | – | < 30% | inhibition of growth at 100 µM [3, 15]: < 30%
19 | COc1cc2c(N3CCCCC3)nc3c(S(=O)(=O)c4ccc(C)cc4)nnn3c2cc1OC | – | – | – | inhibition of growth at 100 µM [3, 15]: > 31%
20 | Cn1c(=O)c2c(-c3ccccc3)n3c(c2n(C)c1=O)C(c1cccc([N+](=O)[O-])c1)Nc1ccccc1-3 (centres undefined) | 64% | 74% | – | –
21 | CCN(CC)c1nc2c(S(=O)(=O)c3ccc(C)cc3)nnn2c2cc(OC)c(OC)cc12 | – | – | < 30% | MIC [4, 16]: 2.5 µM (≈ 1.14 µg/mL)
22 | CCN(CC)c1nc2c(S(=O)(=O)c3ccccc3)nnn2c2cc(C)ccc12 | – | – | < 30% | inhibition of growth at 100 µM [3, 15]: < 30%
23 | CCN(CC)c1nc2c(S(=O)(=O)c3ccccc3)nnn2c2c(Cl)cccc12 | – | – | < 30% | inhibition of growth at 100 µM [3, 15]: < 30%

Row | SMILES | survival at 100 µM [1] | survival at 100 µM [2] | inhibition of growth at 100 µM [6] | other results
24 | CCN(c1nc2c(S(=O)(=O)c3ccc(C)cc3)nnn2c2cc(OC)c(OC)cc12)C(C)C | – | – | – | MIC [4, 16]: 1.6 µM (≈ 0.751 µg/mL)
25 | Cn1c(=O)c2c(-c3ccccc3)n3c(c2n(C)c1=O)C(c1ccco1)Nc1ccccc1-3 (centres undefined) | 100% | 98% | – | –
26 | CCN(CC)c1nc2c(S(=O)(=O)c3ccccc3)nnn2c2ccc(OC)cc12 | – | – | – | MIC [4]: 25 µM (≈ 10.3 µg/mL)
27 | COc1ccc(-c2c3c(=O)n(C)c(=O)n(C)c3c3n2-c2ccccc2NC3c2ccccc2OC)cc1 (centres undefined) | 67% | 85% | – | –
28 | CCN(CC)c1nc2c(S(=O)(=O)c3ccccc3)nnn2c2cccc(Cl)c12 | – | – | < 30% | inhibition of growth at 100 µM [3, 15]: < 30%
29 | Cn1c(=O)c2c(-c3ccccc3)n3c(c2n(C)c1=O)C(c1ccc(F)cc1)Nc1ccccc1-3 (centres undefined) | 26% | 48% | – | –
30 | COc1cc2c(N3CCc4ccccc4C3)nc3c(S(=O)(=O)c4ccc(C)cc4)nnn3c2cc1OC | – | – | > 70% | inhibition of growth at 100 µM [3, 15]: 31%
31 | CCN(CC)c1nc2c(S(=O)(=O)c3ccccc3)nnn2c2ccc(C)cc12 | – | – | < 30% | MIC [4, 16]: 25 µM (≈ 9.89 µg/mL)
32 | Cn1c(=O)c2c(-c3ccccc3)n3c(c2n(C)c1=O)C(c1cc(Cl)ccc1O)Nc1ccccc1-3 (centres undefined) | 35% | 78% | – | –
33 | CCN(CC)c1nc2c(S(=O)(=O)c3ccccc3)nnn2c2ccc([N+](=O)[O-])cc12 | – | – | – | inhibition of growth at 100 µM [3]: > 31%
34 | CCN(CC)c1nc2c(S(=O)(=O)c3ccccc3)nnn2c2ccc(Br)cc12 | – | – | – | MIC [4, 16]: 12.5 µM (≈ 5.75 µg/mL)
35 | Cc1ccc(C2Nc3ccccc3-n3c(-c4ccccc4)c4c(=O)n(C)c(=O)n(C)c4c32)o1 (centres undefined) | 101% | 110% | – | –
36 | CCN(CC)c1nc2c(S(=O)(=O)c3ccccc3)nnn2c2ccc(Cl)cc12 | – | – | < 30% | Activity [11]: Active; MIC [7]: 6.3 µM (≈ 2.62 µg/mL); MIC [8]: 6.3 µM (≈ 2.62 µg/mL); MIC [4, 16]: 3.6 µM (≈ 1.5 µg/mL); MIC [9]: 12.5 µM (≈ 5.2 µg/mL); MIC [10]: 6.3 µM (≈ 2.62 µg/mL)
37 | Cc1cc2c(cc1C)-n1c(-c3ccccc3)c3c(=O)n(C)c(=O)n(C)c3c1C(c1ccco1)N2 (centres undefined) | 94% | 103% | – | –
38 | CCN(CC)c1nc2c(S(=O)(=O)c3ccc(Cl)cc3)nnn2c2cc(OC)c(OC)cc12 | – | – | < 30% | fold change (FC) [12]: 8; Activity [13]: Non-toxic; MIC [7]: 0.3 µM (≈ 0.143 µg/mL); Activity [14]: Toxic; MIC [8]: 0.6 µM (≈ 0.286 µg/mL); MIC [4, 16]: 0.3 µM (≈ 0.143 µg/mL); MIC [9]: 0.3 µM (≈ 0.143 µg/mL); MIC [10]: 0.6 µM (≈ 0.286 µg/mL)
39 | COc1ccc(O)c(C2Nc3ccccc3-n3c(-c4ccccc4)c4c(=O)n(C)c(=O)n(C)c4c32)c1 (centres undefined) | 20% | 40% | – | –
40 | CCCCN(CC)c1nc2c(S(=O)(=O)c3ccc(C)cc3)nnn2c2cc(OC)c(OC)cc12 | – | – | – | MIC [4, 16]: 3.1 µM (≈ 1.5 µg/mL)
41 | Cc1ccc(C2Nc3ccccc3-n3c(-c4ccccc4)c4c(=O)n(C)c(=O)n(C)c4c32)cc1 (centres undefined) | 4% | 70% | – | –
42 | CCCN(CCC)c1nc2c(S(=O)(=O)c3ccc(C)cc3)nnn2c2cc(OC)c(OC)cc12 | – | – | – | MIC [4, 16]: 6.3 µM (≈ 3.05 µg/mL)
43 | Cn1c(=O)c2c(-c3ccccc3)n3c(c2n(C)c1=O)C(c1ccccc1[N+](=O)[O-])Nc1ccccc1-3 (centres undefined) | 79% | 86% | – | –
44 | COc1ccc(-c2c3c(=O)n(C)c(=O)n(C)c3c3n2-c2ccccc2NC3c2cc(O)ccc2O)cc1 (centres undefined) | 0% | 26% | – | –
45 | Cn1c(=O)c2c(-c3ccccc3)n3c(c2n(C)c1=O)C(c1ccc([N+](=O)[O-])cc1)Nc1ccccc1-3 (centres undefined) | 49% | 73% | – | –
46 | CCCN(CCOC)c1nc2c(S(=O)(=O)c3ccc(C)cc3)nnn2c2cc(OC)c(OC)cc12 | – | – | – | inhibition of growth at 100 µM [3, 15]: 31%
